Each structure is given as a SMILES string.

Assay [1] concerns the target 5-hydroxytryptamine receptor 5A (Homo sapiens, UniProt P47898).
The target of a further assay is D(1B) dopamine receptor (Homo sapiens, UniProt P21918).
Another assay concerns the target T1, Substance-K receptor (Homo sapiens, UniProt P21452).
T1 sequence (P21452 whole entry): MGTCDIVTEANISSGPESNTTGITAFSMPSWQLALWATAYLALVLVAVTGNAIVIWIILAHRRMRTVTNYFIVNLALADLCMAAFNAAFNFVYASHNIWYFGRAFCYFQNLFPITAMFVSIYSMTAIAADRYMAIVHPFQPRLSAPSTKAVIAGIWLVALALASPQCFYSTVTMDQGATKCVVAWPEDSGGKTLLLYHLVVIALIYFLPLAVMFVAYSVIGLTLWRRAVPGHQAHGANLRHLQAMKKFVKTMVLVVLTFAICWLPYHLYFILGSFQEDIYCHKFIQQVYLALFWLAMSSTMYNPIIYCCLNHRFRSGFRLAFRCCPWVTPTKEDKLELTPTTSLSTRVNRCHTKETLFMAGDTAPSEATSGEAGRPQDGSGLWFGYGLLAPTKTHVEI

Another assay deals with T2, Adenosine receptor A1 (Homo sapiens, UniProt P30542).
T2 sequence (P30542 whole entry): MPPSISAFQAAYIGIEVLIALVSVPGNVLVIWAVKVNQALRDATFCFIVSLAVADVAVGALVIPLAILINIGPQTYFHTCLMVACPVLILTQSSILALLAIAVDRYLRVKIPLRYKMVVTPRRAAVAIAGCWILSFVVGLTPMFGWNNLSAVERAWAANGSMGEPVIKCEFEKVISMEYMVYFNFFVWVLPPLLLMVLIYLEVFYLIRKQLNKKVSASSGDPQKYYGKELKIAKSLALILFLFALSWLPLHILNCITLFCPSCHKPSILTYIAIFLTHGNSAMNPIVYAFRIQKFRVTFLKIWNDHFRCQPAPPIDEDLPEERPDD

A further assay deals with T3, Androgen receptor (Rattus norvegicus, UniProt P15207).
T3 sequence (P15207 whole entry): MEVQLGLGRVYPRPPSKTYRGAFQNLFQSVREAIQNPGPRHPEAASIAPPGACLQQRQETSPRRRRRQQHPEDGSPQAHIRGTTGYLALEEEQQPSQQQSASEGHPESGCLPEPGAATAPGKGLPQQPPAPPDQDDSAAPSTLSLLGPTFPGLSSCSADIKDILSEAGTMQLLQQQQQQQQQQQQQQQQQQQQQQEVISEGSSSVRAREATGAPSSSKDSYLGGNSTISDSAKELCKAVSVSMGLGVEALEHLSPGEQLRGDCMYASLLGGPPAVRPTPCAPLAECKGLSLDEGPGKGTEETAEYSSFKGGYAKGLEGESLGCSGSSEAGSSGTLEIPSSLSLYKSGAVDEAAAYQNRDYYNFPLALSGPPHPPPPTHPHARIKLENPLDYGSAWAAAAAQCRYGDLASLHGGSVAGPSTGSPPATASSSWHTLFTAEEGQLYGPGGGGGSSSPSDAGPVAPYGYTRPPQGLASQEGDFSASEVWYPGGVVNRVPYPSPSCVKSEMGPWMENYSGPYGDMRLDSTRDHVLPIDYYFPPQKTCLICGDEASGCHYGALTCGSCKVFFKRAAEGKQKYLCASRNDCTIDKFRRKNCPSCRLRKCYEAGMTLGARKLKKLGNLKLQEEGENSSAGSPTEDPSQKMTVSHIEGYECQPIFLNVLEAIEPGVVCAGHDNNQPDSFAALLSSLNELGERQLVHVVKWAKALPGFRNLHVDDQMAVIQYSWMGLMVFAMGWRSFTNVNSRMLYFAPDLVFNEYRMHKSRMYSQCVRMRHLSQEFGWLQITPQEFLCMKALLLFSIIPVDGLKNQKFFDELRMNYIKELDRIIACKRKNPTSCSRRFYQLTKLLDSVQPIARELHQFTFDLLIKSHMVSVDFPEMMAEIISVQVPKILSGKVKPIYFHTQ
The format is functional.

For assay [2], the target named is T4, Alpha-2A adrenergic receptor (Homo sapiens, UniProt P08913).
T4 sequence (P08913 whole entry): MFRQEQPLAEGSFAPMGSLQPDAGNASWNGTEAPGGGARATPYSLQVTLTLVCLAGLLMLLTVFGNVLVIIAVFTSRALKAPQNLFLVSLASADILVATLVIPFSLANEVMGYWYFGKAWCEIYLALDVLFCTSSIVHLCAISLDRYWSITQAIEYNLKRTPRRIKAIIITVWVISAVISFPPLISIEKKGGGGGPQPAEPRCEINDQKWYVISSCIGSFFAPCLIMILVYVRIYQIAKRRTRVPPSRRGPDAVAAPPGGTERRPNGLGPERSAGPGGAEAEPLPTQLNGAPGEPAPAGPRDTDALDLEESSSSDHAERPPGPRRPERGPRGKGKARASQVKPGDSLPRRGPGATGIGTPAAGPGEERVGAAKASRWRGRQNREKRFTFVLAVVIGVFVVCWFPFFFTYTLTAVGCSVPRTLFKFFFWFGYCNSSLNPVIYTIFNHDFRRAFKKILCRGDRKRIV

In the next assay the target is T5, Thromboxane A2 receptor (Homo sapiens, UniProt P21731).
T5 sequence (P21731 whole entry): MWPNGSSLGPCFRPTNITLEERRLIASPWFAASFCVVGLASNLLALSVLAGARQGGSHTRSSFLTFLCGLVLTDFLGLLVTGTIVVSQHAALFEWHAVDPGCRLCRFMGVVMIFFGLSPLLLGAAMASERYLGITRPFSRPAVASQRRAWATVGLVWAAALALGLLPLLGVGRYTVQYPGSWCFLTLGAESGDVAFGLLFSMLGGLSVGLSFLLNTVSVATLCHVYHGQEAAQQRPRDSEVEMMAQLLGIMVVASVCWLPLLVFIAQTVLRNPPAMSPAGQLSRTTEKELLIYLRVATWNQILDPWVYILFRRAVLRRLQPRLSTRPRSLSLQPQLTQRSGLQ
Format: functional.

The target in another assay is Acetylcholinesterase (Homo sapiens, UniProt P22303). The format is functional.
Also: assay procedure not described here.

Chain of D(1B) dopamine receptor (P21918 whole entry): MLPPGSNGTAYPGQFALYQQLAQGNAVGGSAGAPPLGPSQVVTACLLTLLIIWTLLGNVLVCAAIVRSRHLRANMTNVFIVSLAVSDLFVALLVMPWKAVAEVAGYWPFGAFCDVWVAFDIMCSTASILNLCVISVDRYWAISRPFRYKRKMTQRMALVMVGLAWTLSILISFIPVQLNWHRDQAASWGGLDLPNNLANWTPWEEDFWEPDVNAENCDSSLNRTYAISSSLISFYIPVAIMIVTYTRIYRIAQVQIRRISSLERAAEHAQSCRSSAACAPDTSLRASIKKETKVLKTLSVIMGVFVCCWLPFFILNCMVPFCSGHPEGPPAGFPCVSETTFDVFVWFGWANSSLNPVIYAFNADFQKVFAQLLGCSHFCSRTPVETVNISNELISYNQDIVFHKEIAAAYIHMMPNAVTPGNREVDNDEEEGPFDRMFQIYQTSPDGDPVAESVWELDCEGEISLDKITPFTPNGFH
Chain of Acetylcholinesterase (P22303 whole entry): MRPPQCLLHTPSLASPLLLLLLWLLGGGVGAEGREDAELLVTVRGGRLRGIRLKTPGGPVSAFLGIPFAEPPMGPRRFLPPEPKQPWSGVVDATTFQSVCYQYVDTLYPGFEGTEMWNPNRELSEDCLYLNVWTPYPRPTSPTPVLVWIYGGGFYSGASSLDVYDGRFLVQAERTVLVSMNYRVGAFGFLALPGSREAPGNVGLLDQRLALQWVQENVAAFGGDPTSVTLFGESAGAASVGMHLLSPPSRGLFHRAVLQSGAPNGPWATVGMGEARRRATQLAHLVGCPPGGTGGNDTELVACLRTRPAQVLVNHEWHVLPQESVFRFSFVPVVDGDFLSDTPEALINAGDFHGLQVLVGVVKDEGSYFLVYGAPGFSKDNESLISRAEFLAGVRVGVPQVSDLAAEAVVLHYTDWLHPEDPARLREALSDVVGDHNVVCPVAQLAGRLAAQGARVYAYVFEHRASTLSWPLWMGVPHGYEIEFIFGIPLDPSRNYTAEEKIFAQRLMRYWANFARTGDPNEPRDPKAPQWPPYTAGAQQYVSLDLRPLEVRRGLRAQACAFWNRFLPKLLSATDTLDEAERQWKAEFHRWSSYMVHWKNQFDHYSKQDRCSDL
Chain of 5-hydroxytryptamine receptor 5A (P47898 whole entry): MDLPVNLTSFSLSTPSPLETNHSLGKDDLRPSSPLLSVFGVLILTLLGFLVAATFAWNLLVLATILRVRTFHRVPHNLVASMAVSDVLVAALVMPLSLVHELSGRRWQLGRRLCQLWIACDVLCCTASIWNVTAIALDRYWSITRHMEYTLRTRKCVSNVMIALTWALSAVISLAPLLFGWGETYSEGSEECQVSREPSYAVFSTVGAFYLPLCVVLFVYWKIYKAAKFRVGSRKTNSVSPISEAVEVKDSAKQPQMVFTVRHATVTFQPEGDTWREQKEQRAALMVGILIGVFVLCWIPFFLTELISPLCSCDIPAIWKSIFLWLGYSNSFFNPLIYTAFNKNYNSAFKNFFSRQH

As a reminder, the AC50 is the concentration giving half of the maximal activity seen. A higher AC50 goes with weaker potency. For `NC(N)=Nc1nc(CSCCC(N)=NS(N)(=O)=O)cs1` [FAMOTIDINE], the AC50 (in assay [1]; at D(1B) dopamine receptor; at Substance-K receptor) was more than 10 µM throughout.
In the case of `NS(=O)(=O)c1cc2c(cc1Cl)NCNS2(=O)=O` [HYDROCHLOROTHIAZIDE], the concentration at half-maximal activity (AC50) (in assay [1]; on D(1B) dopamine receptor; on Substance-K receptor) was more than 10 µM each time.
`CCOC(=O)[C@H](CCc1ccccc1)N[C@@H](C)C(=O)N1CCC[C@H]1C(=O)O`: the AC50 (in assay [1]; on D(1B) dopamine receptor; at Substance-K receptor) was more than 10 µM throughout.
For the compound `CC(=O)OCC(=O)[C@@]1(O)CC[C@H]2[C@@H]3CCC4=CC(=O)CC[C@]4(C)[C@H]3C(=O)C[C@@]21C` [CORTISONE ACETATE], the AC50 on Adenosine receptor A1 is more than 30 µM.
As to `CCCS(=O)(=O)Nc1ccc(F)c(C(=O)c2c[nH]c3ncc(-c4ccc(Cl)cc4)cc23)c1F` [VEMURAFENIB], the AC50 at Androgen receptor was more than 30 µM.
On to `Nc1nc(N)c2nc(-c3ccccc3)c(N)nc2n1`, for which the AC50 is more than 10 µM in assay [1]; more than 30 µM in assay [2]; more than 3 µM at Androgen receptor; more than 30 µM at Thromboxane A2 receptor; more than 10 µM at D(1B) dopamine receptor; more than 10 µM at Substance-K receptor.
Take `CC(C)C(=O)Nc1ccc([N+](=O)[O-])c(C(F)(F)F)c1` [FLUTAMIDE]: the half-maximal activity concentration (AC50) was more than 30 µM in assay [2] and more than 10 µM at Thromboxane A2 receptor.
In the case of `COc1cc(Nc2c(C#N)cnc3cc(OCCCN4CCN(C)CC4)c(OC)cc23)c(Cl)cc1Cl` [BOSUTINIB], on Adenosine receptor A1, the AC50 is more than 30 µM.
With `CO/N=C(\C(=O)N[C@@H]1C(=O)N2C(C(=O)[O-])=C(C[N+]3(C)CCCC3)CS[C@H]12)c1csc(N)n1`, the AC50 at Acetylcholinesterase was more than 300 µM; on Androgen receptor, more than 30 µM; at Thromboxane A2 receptor, more than 300 µM.
As to `NC(=O)c1cnccn1` [PYRAZINAMIDE], the AC50 (in assay [2]; at Thromboxane A2 receptor) was more than 30 µM in each case.
In turn, `COC(=O)[C@@H]1CC2=CC(=O)CC[C@]2(C)[C@@]23O[C@@H]2C[C@@]2(C)[C@@H](CC[C@@]24CCC(=O)O4)[C@H]13` [EPLERENONE] displayed an AC50 on Acetylcholinesterase of more than 30 µM.
`Cc1cc2c(cc1CC(=O)c1sccc1S(=O)(=O)Nc1onc(C)c1Cl)OCO2` [SITAXENTAN]: the AC50 on Adenosine receptor A1 was more than 30 µM.
With `OCCN1CCN(CCCN2c3ccccc3C=Cc3ccccc32)CC1` [OPIPRAMOL], the AC50 at Adenosine receptor A1 is more than 30 µM.
Regarding `C#C[C@]1(O)CC[C@H]2[C@@H]3CCc4cc(O)ccc4[C@H]3CC[C@@]21C` [ETHINYL ESTRADIOL], the AC50 (in assay [1]; at Adenosine receptor A1) was more than 30 µM in each case.
`COC(=O)N[C@H](C(=O)N1CCC[C@H]1c1nc(-c2ccc(-c3ccc(-c4c[nH]c([C@@H]5CCCN5C(=O)[C@@H](NC(=O)OC)C(C)C)n4)cc3)cc2)c[nH]1)C(C)C` came in with an AC50 at Androgen receptor of more than 30 µM.
On to `OC[C@@H](O)[C@@H](O)[C@H](O)[C@H](O)CO` [MANNITOL], for which, at Adenosine receptor A1, the AC50 was more than 30 µM.
Take `CC(C)NNC(=O)c1ccncc1` [IPRONIAZID]: the AC50 on Acetylcholinesterase and at Thromboxane A2 receptor was more than 30 µM in each case.
As for `Oc1ncnc2[nH]ncc12` [ALLOPURINOL], the AC50 (in assay [2]; on Thromboxane A2 receptor) was more than 30 µM throughout.
`O=C(CCCCCCC(=O)Nc1ccccc1)NO` [VORINOSTAT] returned an AC50 at Substance-K receptor of more than 10 µM.
As for `CC(C)Cc1ccc(CC(=O)O)cc1` [IBUFENAC], the AC50 on Acetylcholinesterase and on Thromboxane A2 receptor was more than 30 µM throughout.
For the compound `CCC(=O)O[C@H]1[C@H](O[C@@H]2[C@@H](C)[C@H](O[C@H]3C[C@@](C)(OC)[C@@H](O)[C@H](C)O3)[C@@H](C)C(=O)O[C@H](CC)[C@@](C)(O)[C@H](O)[C@@H](C)C(=O)[C@H](C)C[C@@]2(C)O)O[C@H](C)C[C@@H]1N(C)C` [ERYTHROMYCIN PROPIONATE], the AC50 at Adenosine receptor A1 is more than 30 µM.
Compound `COc1ccc2c(c1)C(=O)N(CCc1ccc(S(=O)(=O)NC(=O)NC3CCCCC3)cc1)C(=O)C2(C)C` [GLIQUIDONE] showed an AC50 on Androgen receptor of more than 30 µM.
`O=C(NC[C@H]1CN(c2ccc(N3CCOCC3=O)cc2)C(=O)O1)c1ccc(Cl)s1` [RIVAROXABAN] registered an AC50 at Adenosine receptor A1 of more than 30 µM.
